Reference: PMC9387934, “Randomized single oral dose phase 1 study of safety, tolerability, and pharmacokinetics of Iminosugar UV-4 Hydrochloride (UV-4B) in healthy subjects” (PLoS Neglected Tropical Diseases, 2022)
Structures can show the parent of a compound that is named as a salt.

Columns and labels:
[1] = design: method as in Investigator’s Brochure (IB); conditions: in vitro; ref Investigator’s Brochure (IB); cited from earlier work
[2] = Seven-day repeat dose non-GLP study in rats (UV4-COV-0045); format: in vivo, rat; conditions: for a 60 kg human
Protocol: The seven-day repeat dose study in rats was conducted at 10 mg/kg/dose TID (30 mg/kg/day), 25 mg/kg/dose TID (75 mg/kg/day), and 60 mg/kg/dose TID (180 mg/kg/day).
At 10 mg/kg/dose, mild to moderate clinical hematology and clinical chemistry changes and histopathological changes in the gastrointestinal tract (GI) similar to dogs and mice were observed; therefore this dose exceeded the no observed effect level (NOEL). At […]
60 mg/kg/dose there were similar findings to mice and dogs but a unique finding of possible […]
skin, paws and/or feet. These findings appeared within 120 minutes of treatment with the first or second daily dose 60 mg/kg/dose (TID) on Day 1 or Day 2. This response was transient and self-limiting, and was not observed after Day 2 in either the single or repeated doses. […]
The inverted AST/ALT ratio […]
and lymphocyte depletion were reversible. Thymus weight decrease in females was reversible but thymus weight decreases in males were not. However, because the apparent […]
microscopic thymus findings, thymus weight differences at the recovery necropsy were considered not toxicologically important. In mice at 25 mg/kg/dose (75 mg/kg/day) there were decreased thymus weights (males), follicular epithelium vacuolation in the thyroid, and lymphoid depletion of the thymus (males). […]
Daily exposure [calculated as 3 x AUC(0-8)] is estimated at 32,820 ng•h/mL. […]

[3] = design: method as in Investigator’s Brochure (IB); conditions: in vivo; ref Investigator’s Brochure (IB); cited from earlier work
[4] = human, mouse, rat, and dog liver microsomes and hepatocytes; ref Investigator’s Brochure (IB); cited from earlier work

Which “Mutagenicity, mouse lymphoma assay” value [1] does the source give for `COCCCCCCCCCN1C[C@H](O)[C@@H](O)[C@H](O)[C@H]1CO` [UV-4B, N-(9’-methoxynonyl)-1-deoxynojirimycin hydrochloride] here?
The value was “not found to be mutagenic or clastogenic”.

And the “HED of 60 mg/kg/dose in rats” value [2]?
The value was 580 mg.

And the “Mouse bone marrow micronucleus” value [3]?
The value was “not found to be mutagenic or clastogenic”.

For `COCCCCCCCCCN1C[C@H](O)[C@@H](O)[C@H](O)[C@H]1CO` [UV-4, N-(9’-methoxynonyl)-1-deoxynojirimycin], which Metabolic stability [4] is on record?
The Metabolic stability was “metabolically stable”.
